Source: US10675355B2, “VAR2CSA-drug conjugates” (priority 2013, dated 2020)

Test system: Karpas 299 human T cell lymphoma tumor
Experiment: Karpas 299 xenograft efficacy study
Type: in vivo, mice
Settings: IV q2dx3: VAR2-Compound O 12, VAR2 12, Compound 886 0.312 mg/kg
Experimental: Female C.B-17/IcrHsd-Prkdcscid mice (Harlan Laboratories) were implanted subcutaneously in the back with the Karpas 299 human T cell lymphoma tumor cell line. Karpas 299 was established from the peripheral blood of a person with T cell non-Hodgkin's lymphoma in 1986; now classed as CD30+ anaplastic large cell lymphoma (ALCL). The lab stocks were mycoplasma negative. […] The mean tumor volume on treatment day (day 21) was greater than 150 mm^3. Test articles were administered intravenously on Day 1, 3, and 6 (total of three injections) at the doses indicated in the study grouping table. Body weights and tumor volumes were measured every Monday, Wednesday, and Friday. Animals remained on study until their tumors reached 800 mm^3 in size or they otherwise required euthanasia due to achieving a humane endpoint.

`CN[C@H](C(=O)N[C@H](C(=O)N(C)[C@H](/C=C(\C)C(=O)NS(=O)(=O)c1ccc(N)cc1)C(C)C)C(C)(C)C)C(C)(C)c1ccccc1` [Compound 886, (S,E)-N-(4-Aminophenylsulfonyl)-2,5-dimethyl-4-((S)—N,3,3-trimethyl-2-((S)-3-methyl-2-(methylamino)-3-phenylbutanamido)butanamido)hex-2-enamide] was tested, and the “tumor volume, two-way ANOVA Bonferroni posttests” value (“tumor volume” below) (VAR2 versus, Study Day 21) was “ns (P > 0.05 = ns (not significant))”, the “tumor volume” value (VAR2 versus, Study Day 23) was “ns (P > 0.05 = ns (not significant))” and the “tumor volume” value (VAR2 versus, Study Day 26) was “ns (P > 0.05 = ns (not significant))”. The “tumor volume” value (VAR2 versus, Study Day 28) was “* (P < 0.05 = *)”, the “tumor volume” value (VAR2 versus, Study Day 30) was “** (P < 0.01 = **)” and the “tumor volume” value (Vehicle versus, Study Day 21) was “ns (P > 0.05 = ns (not significant))”. For the same molecule, the “tumor volume” value (Vehicle versus, Study Day 23) was “ns (P > 0.05 = ns (not significant))”, the “tumor volume” value (Vehicle versus, Study Day 26) was “* (P < 0.05 = *)” and the “tumor volume” value (Vehicle versus, Study Day 28) was “*** (P < 0.001 = ***)”. The “tumor volume” value (Vehicle versus, Study Day 30) was “*** (P < 0.001 = ***)”.
